According to patent US20040223967A1, “Blood coagulation factor-activating protein and antibody thereto” (RIKEN, priority 2000, published 2004):
Several values for one entry are separate records, joined by “and”; a condition that tells them apart may be missing. Equal entries are not always repeated. Where two headings read alike, the source gives them in different places. One block for each molecule: values may come before it.

Assays:
F-IX-activating enzyme = target: T1, F-IX-activating enzyme (Homo sapiens, UniProt P08246); assay: Assay of inhibitor effect: fluorogenic substrate Suc(OMe)-Ala-Ala-Pro-Val-MCA with crude enzyme extract; type: biochemical
T1 construct: 1-219; from tissue; host or cells: erythrocyte membranes (crude surfactant extract)
T1 sequence (P08246 30-248): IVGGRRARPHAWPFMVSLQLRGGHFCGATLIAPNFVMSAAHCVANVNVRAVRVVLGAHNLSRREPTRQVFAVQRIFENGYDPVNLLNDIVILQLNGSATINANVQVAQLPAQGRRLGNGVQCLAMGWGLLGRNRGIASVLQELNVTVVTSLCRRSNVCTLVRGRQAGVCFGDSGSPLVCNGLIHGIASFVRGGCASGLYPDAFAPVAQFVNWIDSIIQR
Protocol: Relative activity of the enzyme is a ratio of the fluorogenic intensity of the mixture of a fluorogenic synthetic substrate (Suc(OME)-Ala-Ala-Pro-Val-MCA), specific for elastase, the enzyme and inhibitor or antibody to that of the mixture of the fluorogenic substrate and enzyme not containing inhibitor or antibody (control).
To measure the fluorescence intensity of a mixture of inhibitor and the enzyme or elastase, 3 μl of 2 mM fluorogenic synthetic substrate, 2 μl of the enzyme or elastase (concentration: 0.5 mU) and inhibitor or antibody were added to 190 μl HEPES buffer. After incubating the mixture for 30 min at 37° C., 100 μl of the incubated mixture was added to 2 ml of HEPES buffer and the fluorescence intensity was measured using a fluorescence spectrophotometer at λex=380 nm and λem=460 nm.
In the experiments, a crude extract with enzymatic activity, before subjecting to anion-exchange chromatography, was used.

[1] = target: T2, factor IX-activating protein (erythrocyte membrane extract) (Homo sapiens, UniProt P08246); assay: Activation of factor IX by the erythrocyte membrane extract, examined by SDS-PAGE; type: biochemical; conditions: inhibitor added to solution containing the extract
T2 construct: 1-219; from tissue; host or cells: erythrocyte membranes (surfactant extract / chromatography fractions)
T2 sequence (P08246 30-248): T1 sequence (P08246 30-248)
Protocol: 25 μg of pure factor IX (Enzyme Res. Lab.) was dissolved in 50 μl of HEPES buffer, and was mixed with washed erythrocytes (hematocrit: about 40%). 10 μl of 26 mM CaCl2 was added to the suspension, and the mixture was incubated at 37° C. for 30 minutes, and then 30 μl of 0.1 M EDTA was added to the suspension to stop the reaction. The suspension was centrifuged to completely remove erythrocytes, and the supernatant was subjected to SDS-PAGE and Western blot analysis to examine whether the coagulation factor was activated or not. 7.5 to 15% gradient gel was used, and electrophoresis was performed at a constant current of 20 mA in the presence of 0.1% SDS. Protein bands were stained for 3 hours with a 50% ethanol (v/v)/7% acetic acid solution containing 0.25% (w/v) Coomassie brilliant blue R-250 (CBB). When activated factor IX was detected by SDS-PAGE, immunostaining was performed to confirm that the resulting band was of activated coagulation factor IX. In the immunostaining procedures, the gel subjected to electrophoresis was buffered using Towbin buffer (25 mM Tris-HCl (pH 8.3), 192 mM glycin, 20% (v/v) methanol, 0.1% SDS) for 15 minutes, followed by transferring to a polyvinylidene difluoride (PVDF) membrane under conditions of 15V and 150 mA. […]

[2] = material concentration 1 mM, 30 min at 37° C., control without material = 100.0

Molecule: [Ca+2].[Cl-].[Cl-] [CaCl2]
Relative activity of the enzyme (%) (F-IX-activating enzyme; [2]): 156.4%

Molecule: CC(=O)N[C@@H](CC(C)C)C(=O)N[C@@H](CC(C)C)C(=O)N[C@H](C=O)CCCNC(=N)N [Leupeptin, reference compound]
Relative activity of the enzyme (%) (F-IX-activating enzyme; [2]): 78.5%

Molecule: [Cl-].[Na+] [NaCl]
Relative activity of the enzyme (%) (F-IX-activating enzyme): 95.5% and 84.3%

Molecule: O=S(=O)(F)Cc1ccccc1 [PMSF, reference compound]
Relative activity of the enzyme (%) (F-IX-activating enzyme; [2]): 19.2%

Continued, in another order:

Relative activity of the enzyme (%) (F-IX-activating enzyme; [2]): 74.5%
Relative activity of the enzyme (%) (F-IX-activating enzyme; material concentration 10 mM, 30 min at 37° C., control without material = 100.0): 27.0%
Molecule: O=C(O)CN(CCN(CC(=O)O)CC(=O)O)CC(=O)O [EDTA, reference compound]

Relative activity of the enzyme (%) (F-IX-activating enzyme; [2]): 100.5%
Molecule: [Cl-].[Cl-].[Mg+2] [MgCl2]

Relative activity of the enzyme (%) (F-IX-activating enzyme; [2]): 28.8%
Molecule: c1cnc2c(c1)ccc1cccnc12 [Phenanthroline, reference compound]

activation of factor IX by the extract [1]: inhibited
B1: soybean trypsin inhibitor (protein)
chain: DFVLDNEGNPLENGGTYYILSDITAFGGIRAAPTGNERCPLTVVQSRNELDKGIGTIISSPYRIRFIAEGHPLSLKFDSFAVIMLCVGIPTEWSVVEDLPEGPAVKIGENKDAMDGWFRLERVSDDEFNNYKLVFCPQQAEDDKCGDIGISIDHDDGTRRLVVSKNKPLVVQFQKLDKESL
Relative activity of the enzyme (%) (F-IX-activating enzyme; material concentration 1%, 30 min at 37° C., control without material = 100.0): 65.1%
